Assay results as given in ChEMBL document CHEMBL6096690, “Synthesis and Biological Evaluation of Peripheral HTR2A Antagonists for Colorectal Cancer” (J Med Chem, 2025).

How the values were obtained:
[1] = target: 5-hydroxytryptamine receptor 2A (Homo sapiens, UniProt P28223); test: Antagonist activity at 5HTR2A (unknown origin) assessed as inhibition of 5-HTR2A
[2] = target: hERG (KCNH2) (Homo sapiens, UniProt Q12809); test: Inhibition of hERG at 10 uM relative to control; type: toxicity
hERG (KCNH2), sequence (Q12809 whole entry): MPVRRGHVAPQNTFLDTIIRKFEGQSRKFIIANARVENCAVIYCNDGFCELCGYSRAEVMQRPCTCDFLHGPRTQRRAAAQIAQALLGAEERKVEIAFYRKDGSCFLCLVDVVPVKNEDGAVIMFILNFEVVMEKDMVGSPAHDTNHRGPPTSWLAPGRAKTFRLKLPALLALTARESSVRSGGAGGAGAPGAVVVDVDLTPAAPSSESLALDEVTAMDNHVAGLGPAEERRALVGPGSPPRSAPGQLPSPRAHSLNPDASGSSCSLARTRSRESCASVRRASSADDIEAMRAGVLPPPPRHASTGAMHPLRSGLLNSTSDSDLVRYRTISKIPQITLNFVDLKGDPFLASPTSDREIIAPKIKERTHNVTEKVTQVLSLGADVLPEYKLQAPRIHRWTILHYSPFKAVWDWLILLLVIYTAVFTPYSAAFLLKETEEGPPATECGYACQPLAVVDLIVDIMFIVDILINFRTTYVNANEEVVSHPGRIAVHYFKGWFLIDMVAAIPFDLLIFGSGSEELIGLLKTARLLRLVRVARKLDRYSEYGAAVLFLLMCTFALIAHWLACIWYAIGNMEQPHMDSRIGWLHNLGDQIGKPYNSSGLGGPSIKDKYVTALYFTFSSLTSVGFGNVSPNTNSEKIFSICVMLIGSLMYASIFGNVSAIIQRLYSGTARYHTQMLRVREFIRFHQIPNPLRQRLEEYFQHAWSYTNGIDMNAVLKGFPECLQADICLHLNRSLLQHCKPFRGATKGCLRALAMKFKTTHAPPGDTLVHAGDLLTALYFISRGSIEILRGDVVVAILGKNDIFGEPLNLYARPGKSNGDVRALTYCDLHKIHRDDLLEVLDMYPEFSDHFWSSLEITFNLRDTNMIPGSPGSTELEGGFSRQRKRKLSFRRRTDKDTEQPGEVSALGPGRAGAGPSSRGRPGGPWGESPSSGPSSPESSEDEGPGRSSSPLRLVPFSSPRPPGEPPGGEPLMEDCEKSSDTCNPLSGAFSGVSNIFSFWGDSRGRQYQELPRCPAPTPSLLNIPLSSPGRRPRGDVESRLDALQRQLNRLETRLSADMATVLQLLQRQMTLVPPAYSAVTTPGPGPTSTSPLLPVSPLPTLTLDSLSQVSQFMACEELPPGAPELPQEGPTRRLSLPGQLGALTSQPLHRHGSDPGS

5-hydroxytryptamine receptor 2A, sequence (P28223 whole entry): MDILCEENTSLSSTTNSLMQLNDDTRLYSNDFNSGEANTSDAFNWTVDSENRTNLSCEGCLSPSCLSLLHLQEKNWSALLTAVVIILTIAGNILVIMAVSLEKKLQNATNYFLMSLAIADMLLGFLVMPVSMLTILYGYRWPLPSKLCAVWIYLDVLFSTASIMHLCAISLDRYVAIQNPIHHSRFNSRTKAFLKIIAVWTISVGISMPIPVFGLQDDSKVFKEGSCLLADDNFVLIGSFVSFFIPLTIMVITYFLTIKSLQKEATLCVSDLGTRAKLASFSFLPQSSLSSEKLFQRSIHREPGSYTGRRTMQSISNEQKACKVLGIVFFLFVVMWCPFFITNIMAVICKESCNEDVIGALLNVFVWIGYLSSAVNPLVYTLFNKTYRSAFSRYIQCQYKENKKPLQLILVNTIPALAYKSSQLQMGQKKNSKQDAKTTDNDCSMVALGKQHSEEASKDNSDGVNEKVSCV

Row | Structure (SMILES) | IC50 [1] [nM] | inhibition at 10 µM [2] [%]
1 | O=C(NCc1ccc(OCC(O)CN2CCN(c3noc4cc(F)ccc34)CC2)cc1)N(Cc1cc(F)c(F)cc1F)C1CCNCC1 (centres undefined) | 49.5 | 72.9
2 | O=C(NCc1ccc(OCC(O)CN2CCN(c3noc4cc(F)ccc34)CC2)cc1)N(Cc1ccc(F)cc1F)C1CCNCC1 (centres undefined) | 46.5 | 87.7
